Measurements published in patent US9974760B2, “Compositions and methods for treating cancer” (Chemo-Enhanced LLC, priority 2011, dated 2018).
“Also recorded” adds a separate entry of the source.

Key:
[1] = test system: L3.6 pancreatic cancer cells; test: Cell viability / cell death (MTT) in L3.6 pancreatic cancer cells; type: cell-based, human; conditions: for cell death of L3.6 cells: 2.5 μg/ml C6-ceramide, 1.5 μg/ml taxol
Procedure: L3.6 pancreatic cancer cells, cultured either in the basic DMEM medium or with 10% FBS, were treated with the indicated doses of taxol in the presence or absence of C6-ceramide (10 μg/ml) for 48 hours and cell viability was detected by MTT assay (FIGS. 1A-1B). L3.6 cells, cultured either in basic DMEM medium or with 10% FBS, were treated with the indicated dose of C6-ceramide in the presence or absence of taxol (1.5 μg/ml) for 48 hours and cell viability was detected by MTT assay (FIGS. 1C-1D). Mitomycin C (10 μg/ml) was always present in the media to prevent cell proliferation from occurring. The data represents the mean±SD of at least triplicate experiments. *P<0.05 versus group without C6-ceramide presents (FIGS. 1A-1B). **P<0.05 versus group without taxol presents (FIGS. 1C-1D).
(§1) FIGS. 3A-3H show synergistic anti-tumor effects of C6-ceramide and gemcitabine in vivo and in vitro. SCID/Beige/Taconic nude male mice (22-25 g; 6-8 weeks old) were ear tagged and randomized into 4 different groups (Control, Ceramide, gemcitabine, Ceramide+gemcitabine) combining 5 mice each prior to inoculation subcutaneous (s.c.) with 2×10^6 L3.6 cells in a 0.1 ml volume into the internal surface of the right thigh. Treatment was started 4 days after L3.6 cell injection with thrice weekly (3×/wk) intraperitoneal (i.p.) injections of gemcitabine (two doses: 5.0 and 10.0 mg/ml) with or without C6-ceramide (10 mg/ml) for 2 weeks. Mouse survival (FIGS. 3A, 3B, and 3E) and tumor volume (in cm^3; FIGS. 3C and 3D) were recorded (FIG. 3E). Pancreatic cancer cell lines, including L3.6 cells (FIG. 3F), Panc-1 cells (FIG. 3G) and MIA-PaCa2 cells (MIA, FIG. 3H) were cultured in basic DMEM medium and were treated with gemcitabine (Gem, 1 μg/ml). Mitomycin C was always present in the media to prevent cell proliferation from occurring. The data represent the mean±SD of at least triplicate experiments. *P<0.05 versus group without C6-ceramide presents. The experiments were repeated at least three times and similar results were observed.
Pancreatic cancer cell lines L3.6 cells were left untreated or treated with gemcitabine (Gem, 1 μg/ml) or taxol (1.5 μg/ml) in the presence or absence of C6-ceramide (10 μg/ml) for 2, 4 and 6 hours, AKT/mTORC1 and ERK activation were detected by Western Blot using indicated antibodies (FIGS. 5A and 5C). p-AKT (S473) and p-ERK at 4 hour time intervals for each treatment quantified (FIGS. 5B and 5D). L3.6 cells were pretreated with various inhibitors including PI3K/AKT inhibitor LY 294002 (LY, 1 μM), mTORC1 inhibitor rapamycin (100 nM), MEK/ERK inhibitor U0126 (1 μg/ml) or gemcitabine (1 μg/ml) for 48 hours, cell death was detected 48 hours later (FIG. 5E). The effects of the various inhibitors described above on AKT/mTORC1 and ERK activation were also detected by Western Blots using commercial available antibodies (FIG. 5F). *P<0.05 versus group without C6-ceramide presents. The experiments were repeated at least three times and similar results were observed.
Cell viability was measured by the 3-[4m5-dimethylthylthiazol-2-y]-2.5 diphenyltetrazolium bromide (MTT) method, as described in Cao et al. (2009) Sci. Signal, 2:RA17. Briefly, the cells were collected and seeded in 96-well plate at a density of 2×10^5 cells/cm^2. Different seeding densities were optimized at the beginning of the experiments. After overnight incubation cells were exposed to fresh medium containing indicated reagents at 37° C. After incubation for different time periods, 20 ul of MTT tetrazolium (Sigma, St. Louis, Mo.) salt dissolved in Hank's balanced solution at a concentration of 5 mg/ml was added to each well and incubated in a CO2 incubator for an additional 4 hours. The medium was subsequently aspirated from each well and 150 ul of DMSO (Sigma, St. Louis, Mo.) was added to dissolve formazan crystals and the absorbance of each well was obtained using a Dynatech MR5000 plate reader at a test wavelength of 490 nm with a reference wavelength of 630 nm. […]

L3.6 pancreatic cells = type: in vivo; conditions: taxol 3 mg/ml, C6-ceramide 10 mg/ml, i.p. 3×/wk, vs control
Procedure: Treatment was started 4 days after L3.6 cell injection with thrice weekly (3×/wk) intraperitoneal (i.p.) injections of paclitaxel 3.0 mg/ml with or without C6-ceramide (10 mg/ml) for 2 weeks. Mouse survival (FIGS. 2A and 2C), tumor volume (in cm^3; FIG. 2B), mouse body weight (in grams) were recorded (FIG. 2E). The average rate of tumor development was calculated by total tumor volume dividing by total number of days monitored (FIG. 2C).
as §1, with “SCID/Beige/Taconic” for “FIGS. 3A-3H show synergistic anti-tumor effects of C6-ceramide and gemcitabine in vivo and in vitro. SCID/Beige/Taconic”, “occurring.” for “occurring. The data represent the mean±SD of at least triplicate experiments. *P<0.05 versus group without C6-ceramide presents. The experiments were repeated at least three times and similar results were observed.”
SCID/Beige/Taconic male mice were inoculated with 2×10^6 L3.6 pancreatic cells and treated […] 4 days post tumor implant with thrice weekly (3×/wk) intraperitoneal (I.P.) injections of paclitaxel (taxol) 3.0 mg/ml or gemcitabine (Gem) 10 mg/ml after treatment and were autopsied when near death (as per IRB committee). Mouse survival, tumor volume (in cm^3), and body weight (in grams) were recorded. Average rate of tumor development was calculated by dividing total tumor volume by total number of days monitored.
The possible combination effect of C6-ceramide on gemcitabine-induced cytotoxicity (in vitro) and regression (in vivo) of the L3.6 pancreatic cancer cell was also tested according to the methods described in Examples 2 and 3.

AMPK/ACC = AMPK/ACC signaling in L3.6 cell line; type: cell-based; conditions: for AMPK activation: taxol alone
From the text: The molecular mechanism involved in C6-ceramide induced chemosensitization effects was examined by focusing on taxol.
To further confirm the requirement of AMPK activation in this synergistic effect, siRNA directed against AMPK can be used.

| Structure (SMILES) | sensitization to cetuximab ([1]; L3.6 cells) | enhancement of paclitaxel induced cell death ([1]; L3.6 cells, dose dependent manner) | L3.6 cell death, agent alone ([1]; basic DMEM medium, MTT) | L3.6 cell death ([1]; cultured in 10% FBS) | cell death of L3.6 cells ([1]; cultured in 10% FBS) | mouse survival (L3.6 pancreatic cells) | tumor volume (L3.6 pancreatic cells) | effect on Taxol induced AMPK/ACC signaling (phosphorylation) (AMPK/ACC; C6-ceramide added to taxol, L3.6 cell line) | L3.6 cell death ([1]; basic DMEM medium, MTT, 48 hours, paclitaxel 1.5 μg/ml alone or combined with C6-ceramide) | AMPK activation (AMPK/ACC; listed as Taxol) | AMPK activation (AMPK/ACC; listed as taxol) |
| --- | --- | --- | --- | --- | --- | --- | --- | --- | --- | --- | --- |
| CCCCCCCCCCCCC/C=C/[C@@H](O)[C@H](CO)NC(=O)CCCCC [C6-ceramide, N-hexanoyl-D-sphingosine] | markedly sensitized | dramatically enhanced | limited effects | neither taxol or C6-ceramide alone had any meaningful effects | neither of these two alone had any measurable effect | minimal effects | minimal effects | enhancing; also recorded: dramatically enhances |  |  |  |
| CC(=O)O[C@H]1C(=O)[C@@]2(C)[C@H]([C@H](OC(=O)c3ccccc3)[C@]3(O)C[C@H](OC(=O)[C@H](O)[C@@H](NC(=O)c4ccccc4)c4ccccc4)C(C)=C1C3(C)C)[C@]1(OC(C)=O)CO[C@@H]1C[C@@H]2O [paclitaxel] |  |  |  | neither taxol or C6-ceramide alone had any meaningful effects | neither of these two alone had any measurable effect | minimal effects | minimal effects |  | less than 5% | strongly induce | moderate AMPK activation |
